# Experimental data reported in patent US20120295838A1, “Selective poly-substituted glycine antibiotics and related compositions” (priority 2008, published 2012).
# Square brackets hold non-standard residues; d marks the D form. Peptide text beside a SMILES is read from it. Nspe = C[C@H](NCC(=O)O)c1ccccc1; Nlys = NCCCCNCC(=O)O
# Legend:
# [1] = system: human erythrocytes; assay: Hemolysis assay; type: cell-based
# Method in brief: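 Heparinised fresh human erythrocytes, 20 vol % in PBS pH 7.4, mixed 1:1 with 1:2 serially diluted peptoid and incubated 1 h at 37 °C. PBS alone as 0% and 0.2 vol % Triton X-100 as 100% hemolysis; after 1200 g spin for 15 min, supernatant A350 read.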
# [2] = system: E. coli ATCC 35218; type: cell-based; conditions: Table 8; CAMHB
# [3] = MTS assay, NIH 3T3 cells; type: cell-based, mouse; conditions: NIH 3T3 fibroblast cells; Table 6; 50% inhibitory dose against NIH 3T3 mouse fibroblast cells; read-out: ID50
# Method in brief: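 NIH/3T3 cells seeded at 5,000 per well, grown a day in DMEM with 10% FBS, then washed and exposed to serially diluted peptoid in HBSS together with MTS reagent. Absorbance at 490 nm read after 3 hours at 37 °C as a measure of metabolic activity; mean of six replicates.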
# [4] = system: Staphyloccus aureus (ATCC #25923); assay: Murine intraperitoneal infection model; type: in vivo; conditions: mouse, S. aureus I.P., 4 mg/kg peptoid I.P.; eleven mice for 1-Nhis6,12
# Protocol: Using a murine peritoneal injection mouse model, the ability of peptoids to treat infection was evaluated in vivo. The results from three separate studies of peptoid 1 and two of peptoid 1-Nhis6,12 against saline treated controls are shown in FIG. 7. The horizontal line represents the geometric mean of each population.
# Murine intraperitoneal infection model. Bacteria was prepared by inoculating 5 mL of MHB with a single colony of Staphyloccus aureus (ATCC #25923) from a freshly streaked plate and grown overnight at 37 C. The following morning, the bacteria was subcultured by diluting 1/3 in MHB and grown for approximately 1 .5 hours. The bacteria were then diluted 10-fold in a 5% mucin in PBS solution and thoroughly mixed. A sample was reserved to later determine the amount of bacteria the mice received.
# Mice were weighed, marked, and injected I.P. with 200 uL of S. aureus inoculum. Four hours post infection, mice were treated I.P. with 4 mg/kg peptoid (˜100 ug per mouse). The infection is allowed to proceed overnight. Mice were euthanized by CO2 asphyxiation after 24 hours, and the peritoneal cavity was exposed and lavaged with 5 mL PBS. The lavage was mixed and reserved on ice until plating. The lavages were diluted to 10^−5 (in1/10 increments) in PBS, and all dilutions were plated onto MH agar, in duplicate. 50 uL of lavage was spot plated, allowed to dry, and incubated overnight at 37° C. Colonies were counted the following day, and the CFU/ml of each sample was calculated. Plates that had too many colonies to count were assigned an arbitrary number of 1000 colonies.
# [5] = system: both strains of E. faecalis; type: cell-based; conditions: text summary of Table 7A
# Protocol: The activities of ampetoids tested against BSL2 Gram-positive strains, however, compared very favorably to those of pexiganan.
# Broad-spectrum antibacterial assays. MICs of compounds were determined by microdilution procedure in Mueller-Hinton broth (MHB) in accordance with CLSI M7-A6 protocols in a manner similar to that described for the screen antibacterial assays. Inoculated microtiter plates were incubated at 35° C. for 24 hours prior to the result being recorded. Four ATCC strains that were used as standards are recommended by CLSI: Pseudomonas aeruginosa ATCC 27853, Escherichia coli ATCC 25922, Staphylococcus aureus ATCC 29213 and Enterococcus faecalis ATCC 29212. Other strains from the ATCC collection include Proteus vulgaris ATCC 49132, Proteus mirabilis ATCC 35659, Klebsiella pneumoniae ATCC 33495, Enterobacter aerogenes ATCC 35029 and Serratia marcescens ATCC 13880. S. aureus NRS100 (COL) is a well characterized methicillian-resistant S. aureus (MRSA) strain. The strains S. aureus VAN1 and S. aureus VAN2, vancomycin-resistant MRSA strains that were isolated in Michigan and Pennsylvania, were the first vancomycin-resistant strains clinically isolated. S. aureus NRS 119 and S. aureus NRS 120 are linezolid-resistant isolates from the Network on Antimicrobial Resistance in S. aureus (NARSA) collection. […]
structure (smiles),measurement,setting,value
"C[C@@H](c1ccccc1)N(CC(N)=O)C(=O)CN(C(=O)CN(CCCCN)C(=O)CN(C(=O)CN(C(=O)CN(CCCCN)C(=O)CN(C(=O)CN(C(=O)CN(CCCCN)C(=O)CN(C(=O)CN(C(=O)CNCCCCN)[C@@H](C)c1ccccc1)[C@@H](C)c1ccccc1)[C@@H](C)c1ccccc1)[C@@H](C)c1ccccc1)[C@@H](C)c1ccccc1)[C@@H](C)c1ccccc1)[C@@H](C)c1ccccc1 [compound 1, H-(NLys-Nspe-Nspe)4-NH2] (H-[Nlys][Nspe][Nspe][Nlys][Nspe][Nspe][Nlys][Nspe][Nspe][Nlys][Nspe][Nspe]-NH2)",HD10,"[1]; Table 6, 10% hemolytic dose",21 µM
same,HD10,[1]; Table 8,14 µM
same,HD50,[1]; Table 8,63 µM
same,MIC for E. coli ATCC 35218,[2],6.3 µM
same,CC50 at 3 h,[3],5.1 µM
same,mice that died prematurely during the exposure period,[4],no mice
same,"MIC, range over both strains of E. faecalis",[5],4 to 8 µg/mL
